Some test systems named below: IGROV-1; HCT-116; CCRF-CEM; ACHN; OVCAR-3; PC-3; RXF 393; UO-31; UACC-62; U-251; OVCAR-8; CAKI-1; HCC 2998; HOP-62; MDA-MB-231; MCF7; SK-MEL-28; Malme-3M; OVCAR-4; KM12.
Holding throughout (assay): DTP human tumour cell line panel, 48 h

Each structure is given as a SMILES string.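 Tested at 5 concentrations; 48 h exposure; 96-well plates; endpoints linearly interpolated, else capped at highest concentration. GI50: concentration for 50% inhibition of growth.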 Active and inactive are the calls of the source. Rule as the data show it: active = GI50 up to about 1.1 µM and inactive = higher.

For orientation: GI50 means the concentration at which growth is held to half of that of the control.

As for `Cc1cc2c(c3oc(C4(C)OC4C4OC4C)cc(=O)c13)C(=O)c1c(O)c(C3CC(C)(N(C)C)C(O)C(C)O3)cc(C3CC(N(C)C)C(O)C(C)O3)c1C2=O` (configuration not stated), the GI50 is 0.000951 µM (active) in the assay on IGROV-1; 1.54e-05 µM (active) in the assay with HCT-116; 0.0025 µM (active) in the assay with CCRF-CEM; 4.4e-05 µM (active) with ACHN; 0.000191 µM (active) with OVCAR-3; 6.52e-05 µM (active) in the assay with PC-3. Further, the concentration for 50% growth inhibition (GI50) in the assay on RXF 393 was 0.000104 µM (active); with UO-31, 0.000557 µM (active); in the assay with UACC-62, 6.43e-05 µM (active); with U-251, 4.1e-05 µM (active); in the assay on OVCAR-8, 0.0025 µM (active); with CAKI-1, 5.46e-05 µM (active). Further, the GI50 in the assay with HCC 2998 is 0.00014 µM (active); in the assay with HOP-62, 5.79e-05 µM (active); in the assay on MDA-MB-231, 0.000227 µM (active); with MCF7 it was 2.49e-05 µM (active).
With `CCC12CC(c3ccccc3)C(C(=O)N1)C(=O)N2` (configuration not stated), the GI50 in the assay on IGROV-1, with HCT-116, in the assay with SK-MEL-28, in the assay with CCRF-CEM, with ACHN and in the assay on Malme-3M was > 100 µM (inactive) each time. The GI50 in the assay with OVCAR-3, in the assay with PC-3, in the assay on RXF 393, with UO-31, in the assay with UACC-62 and in the assay on OVCAR-4 was > 100 µM (inactive) throughout. Moreover, the GI50 in the assay with U-251, with OVCAR-8, in the assay on CAKI-1, in the assay on HOP-62, with KM12 and in the assay with MDA-MB-231 was > 100 µM (inactive) in each case. Further, the GI50 in the assay on MCF7 is > 100 µM (inactive).
Take `NC(=S)N/N=C1\CCCCC1C(O)(C(F)(F)Cl)C(F)(F)Cl` (configuration not stated): the GI50 with IGROV-1, in the assay on HCT-116, in the assay on SK-MEL-28, in the assay with CCRF-CEM, in the assay with ACHN and in the assay with Malme-3M was > 10 µM (inactive) in each case. The GI50 with OVCAR-3, in the assay with PC-3, in the assay with RXF 393, with UACC-62, in the assay on OVCAR-4 and with U-251 was > 10 µM (inactive) each time. Also, the GI50 in the assay with OVCAR-8, in the assay on HCC 2998, with HOP-62, with KM12, in the assay on MDA-MB-231 and with MCF7 was > 10 µM (inactive) in each case.
In the case of `CC1=C(C(=O)NCC(C)O)CC(C(=O)NCC(C)O)=C(C)N1` (configuration not stated), the GI50 in the assay on IGROV-1, in the assay on HCT-116, in the assay on SK-MEL-28, in the assay with CCRF-CEM, in the assay on ACHN and in the assay with OVCAR-3 was > 100 µM (inactive) each time. Further, the GI50 in the assay with PC-3, in the assay on RXF 393, in the assay with UO-31, in the assay on UACC-62, with OVCAR-4 and with U-251 was > 100 µM (inactive) throughout. Also, the GI50 in the assay on OVCAR-8 is > 100 µM (inactive); with CAKI-1, > 100 µM (inactive); in the assay on HCC 2998, > 100 µM (inactive); in the assay with HOP-62, > 100 µM (inactive); in the assay on KM12, > 100 µM (inactive); in the assay with MDA-MB-231, 46.5 µM (inactive). For the same compound, in the assay with MCF7, the GI50 was > 100 µM (inactive).
Consider `C1CCSCCCCSCCCCSCCCCSC1`, for which the GI50 in the assay on IGROV-1, in the assay with HCT-116, in the assay with SK-MEL-28, with ACHN, in the assay on OVCAR-3 and in the assay with PC-3 was > 100 µM (inactive) throughout. The GI50 in the assay with RXF 393, in the assay with UO-31, in the assay with UACC-62, with OVCAR-4, in the assay with U-251 and in the assay with OVCAR-8 was > 100 µM (inactive) each time. Further, the GI50 in the assay on CAKI-1, in the assay on HCC 2998, in the assay with HOP-62, in the assay with KM12, with MDA-MB-231 and with MCF7 was > 100 µM (inactive) throughout.
For the compound `O=c1c2ncn(C3CCCO3)c2n(-c2ccccc2)c(=S)n1-c1ccccc1` (configuration not stated), the GI50 with IGROV-1, in the assay with HCT-116, with SK-MEL-28, in the assay with CCRF-CEM, in the assay with ACHN and in the assay on OVCAR-3 was > 100 µM (inactive) each time. Besides, the GI50 with PC-3, with RXF 393, in the assay with UO-31, in the assay with UACC-62, in the assay on OVCAR-4 and in the assay on U-251 was > 100 µM (inactive) throughout. The GI50 in the assay on OVCAR-8, in the assay on CAKI-1, with HCC 2998, in the assay with HOP-62, with KM12 and with MDA-MB-231 was > 100 µM (inactive) throughout. In the assay with MCF7, the GI50 was > 100 µM (inactive).
In the case of `O=C(O)CCc1nc2c(n1Cc1ccccc1)C(=O)c1ccccc1C2=O`, the GI50 in the assay with IGROV-1 is 70.3 µM (inactive); in the assay with HCT-116, 36.3 µM (inactive); in the assay with SK-MEL-28 it was > 100 µM (inactive); in the assay with CCRF-CEM, 76.7 µM (inactive); with ACHN, > 100 µM (inactive); in the assay on OVCAR-3, 27.9 µM (inactive). Moreover, the GI50 with PC-3 is 72.9 µM (inactive); in the assay with RXF 393 it was 24.9 µM (inactive); with UO-31, 30.8 µM (inactive); with UACC-62, 38 µM (inactive); with OVCAR-4 it was > 100 µM (inactive); in the assay on U-251, 56 µM (inactive). For the same compound, the GI50 in the assay with OVCAR-8 was 49.4 µM (inactive); with CAKI-1, > 100 µM (inactive); in the assay on HCC 2998, > 100 µM (inactive); with HOP-62, > 100 µM (inactive); in the assay with KM12 it was 52.4 µM (inactive); in the assay with MDA-MB-231, 33.5 µM (inactive). In addition, in the assay with MCF7, the GI50 was 43.8 µM (inactive).
Regarding `O=[N+]([O-])c1ccc(Cl)cc1N/N=C/c1cccs1`, the GI50 in the assay with IGROV-1, in the assay on HCT-116, with SK-MEL-28, with CCRF-CEM, in the assay with ACHN and in the assay with OVCAR-3 was > 100 µM (inactive) in each case. Moreover, the GI50 in the assay on PC-3, in the assay with RXF 393, in the assay on UO-31, in the assay with UACC-62, in the assay with OVCAR-4 and in the assay on U-251 was > 100 µM (inactive) throughout. For the same compound, the GI50 in the assay with OVCAR-8, with CAKI-1, in the assay on HCC 2998, in the assay on HOP-62, in the assay with KM12 and in the assay on MDA-MB-231 was > 100 µM (inactive) in each case. The GI50 in the assay on MCF7 is 9.95 µM (inactive).
